Data set [1] has as its target T1, Corticotropin-releasing factor receptor 1 (Homo sapiens, UniProt P34998).
T1 sequence (P34998 whole entry): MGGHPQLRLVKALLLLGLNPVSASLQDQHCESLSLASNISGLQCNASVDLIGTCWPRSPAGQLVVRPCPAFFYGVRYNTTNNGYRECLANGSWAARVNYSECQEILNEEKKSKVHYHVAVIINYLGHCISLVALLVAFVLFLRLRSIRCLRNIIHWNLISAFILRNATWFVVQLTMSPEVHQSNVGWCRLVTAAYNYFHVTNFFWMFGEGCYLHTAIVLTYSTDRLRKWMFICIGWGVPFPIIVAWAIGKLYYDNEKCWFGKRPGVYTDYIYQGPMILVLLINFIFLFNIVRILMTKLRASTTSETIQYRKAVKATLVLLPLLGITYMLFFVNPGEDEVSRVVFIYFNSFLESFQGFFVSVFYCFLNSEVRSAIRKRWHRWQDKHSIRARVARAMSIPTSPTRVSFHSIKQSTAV
The experiment in a line: Inhibition of Corticotropin releasing factor receptor 1-stimulated cAMP production. In kind it is functional. (In general: Cyclic AMP is a second messenger, typically raised through Gs and lowered through Gi signalling.)

Data set [2] concerns the target T1, Corticotropin-releasing factor receptor 1. Nature of the data set: Binding affinity towards cloned human Corticotropin releasing factor receptor 1 expressed in CHO cells using [125I]o-CRF as the radioligand. In kind it is cell-based.
Data set [3] in a line: pKa value was determined. In kind it is physicochemical.
Data set [4] is described as follows: Solubility at pH 4. In kind it is physicochemical. As to conditions: buffer.

In brackets after ≈: the same amount, converted by molar mass.

The IC50 is the concentration at which inhibition is half-maximal. A lower IC50 goes with higher potency. The Ki is a measure of affinity in units of concentration, obtained from inhibition or displacement. Read a low Ki as higher affinity. Usually pKa stands for the negative logarithm of the acid dissociation constant. A higher pKa goes with a group that holds its proton tightly. In general, solubility refers to how much of the substance goes into solution per volume. Low readings indicate a poorly soluble substance, high ones a readily soluble substance.

Consider `CCCN(CC1CC1)c1cc(C)nc2c(-c3ccc(Cl)cc3Cl)cccc12`, for which the half-inhibitory concentration (IC50) in data set [1] was 16 nM. Moreover, in data set [2], the inhibition constant (Ki) stood at 0.5 nM.
In the case of `CCCN(CC1CC1)c1cc(C)nc2c(-c3c(C)cc(C)cc3C)cccc12`, affinity in data set [2] was put at a Ki of 2.2 nM.
`CCCCN(CC)c1cc(C)nc2c(-c3ccc(Cl)cc3Cl)cccc12` gave a 50% inhibitory concentration (IC50) in data set [1] of 51 nM. The molecule further gave a Ki in data set [2] of 5.7 nM.
In the case of `CCCN(CCC)c1cc(C)nc2c(-c3ccc(OC)cc3)cccc12`, the Ki in data set [2] amounted to 52 nM. This lies in the double-digit nanomolar range.
The same measure, in the same setting: the figure for `COCCN(CCOC)c1cc(C)nc2c(-c3c(C)cc(C)cc3C)cccc12` is 6.5 nM; for `CCCN(CC1CC1)c1cc(C)nc2c(-c3ccc(Cl)cc3Cl)c(C)ccc12` it is 2.5 nM; for `CSc1cc(C)nc2c(-c3ccc(Cl)cc3Cl)cccc12` it is 16 nM.
On the same count and under the same terms, the figure for `CCCN(CCC)c1cc(C)nc2c(-c3ccc(Cl)cc3)cccc12` is 8.9 nM.
Regarding `COCCN(CCOC)c1cc(C)nc2c(-c3ccc(Cl)cc3Cl)cccc12`, the midpoint of inhibition in data set [1], the IC50, lay at 14 nM. This molecule also came in with a Ki in data set [2] of 5.7 nM.
`CCCN(CCC)c1cc(C)nc2c(-c3cnc(N(C)C)cc3C)c(C)nn12`: the pKa in data set [3] was found to be 7.1. In data set [4], this molecule returned a solubility of 10000 µg/mL (≈ 26.3 mM).

The values above are taken from ChEMBL document CHEMBL1136254, “Synthesis and SAR of 8-arylquinolines as potent corticotropin-releasing factor1 (CRF1) receptor antagonists” (Bioorg Med Chem Lett, 2003).
